US20060153782A1, “Skin photoageing and actinic damage treatment” (Novogen Research Pty Ltd, priority 2002, published 2006)

What was measured:
skin thickness = assay: Skin thickness of hairless mice after chronic UV exposure; format: in vivo; conditions: hairless mice treated either before or after chronic UV exposure, vs non-treated mice
From the text: Increased skin thickness may be associated with wrinkles, capillary dilation in skin and skin dryness, as well as actinic damage.

CPD+ve epidermal cells = assay: Cyclobutane pyrimidine dimers (CPD) in UV-irradiated human skin; format: in vivo; conditions: human subject; equol treated skin post-UVR compared with vehicle-only treated skin
From the text: The formation of CPD's, which occurs immediately on UV exposure (Viv Reeve, pers comm) would be unaffected by any therapeutic agent applied post-UVR. However, the rate of repair of CPDs might be increased by equol. If this occurred, fewer CPDs in equol treated skin compared with the number in vehicle-only treated skin would be observed. [drawing 5] Equol (CAS No. 531-95-3)

| SMILES | skin thickness (skin thickness) | percentage of CPD+ve epidermal cells (CPD+ve epidermal cells) |
| --- | --- | --- |
| Oc1ccc(C2=Cc3ccc(O)cc3OC2)cc1 [dehydroequol] | decreased skin thickness | – |
| Oc1ccc(C2COc3cc(O)ccc3C2)cc1 (stereo not drawn) [equol, Equol] | decreased skin thickness | lower percentage of CPD+ve epidermal cells |
